Reference: ChEMBL document CHEMBL5576140, “Computational Design of Pore-Forming Peptides with Potent Antimicrobial and Anticancer Activities” (J Med Chem, 2024)
Active and inactive are the calls of the source. No cut-off for these calls is given here.

Test system: Escherichia coli
Test: Induction of outer membrane permeabilization in Escherichia coli ATCC 11775 measured for 20 mins by NPN uptake assay
Type: functional, organism-based

## H-KKKKLKKILKKLFQFINQLDNQLQDIKQNK-NH2
  Activity: Active
